Source: ChEMBL document CHEMBL5120979, “Oral Nonpeptidic, Noncovalent Triazine Coronavirus Main Protease Inhibitors for Treating COVID-19” (ACS Med Chem Lett, 2022)

Assays:
SARS-CoV-2 = test: Antiviral activity against SARS-CoV-2 infected in African green monkey VeroE6 cells expressing TMPRSS2; format: functional, organism-based; conditions: Severe acute respiratory syndrome coronavirus 2, Vero C1008
[1] = target: Replicase polyprotein 1ab (Severe acute respiratory syndrome coronavirus 2, UniProt P0DTD1); test: Inhibition of recombinant SARS-CoV-2 main protease usingDABCYLKTSAVLQSGFRKME(EDANS)-NH2 fluorogenic peptide substrate by FRET assay

SMILES | EC50 (SARS-CoV-2) [nM] | IC50 [1] [nM]
Cn1cnc(Cn2c(=O)nc(Nc3cc4cn(C)nc4cc3Cl)n(Cc3cc(F)c(F)c(F)c3)c2=O)c1 | 1030 | 6
Cn1cnc(Cn2c(=O)nc(NC3=CC4CCOC4C=C3Cl)n(Cc3cc(F)c(F)c(F)c3)c2=O)n1 (stereo not given) | 385 | 15
Cc1cncc(-n2c(=O)nc(Nc3cc4cn(C)nc4cc3Cl)n(Cc3cc(F)c(F)c(F)c3)c2=O)c1 | 177 | 
Cn1cc2cc(Nc3nc(=O)n(-c4cncc(C(F)(F)F)c4)c(=O)n3Cc3cc(F)c(F)c(F)c3)c(Cl)cc2n1 | 6600 | 
Cn1cc2cc(Nc3nc(=O)n(Cc4cc(Cl)ccn4)c(=O)n3Cc3cc(F)c(F)cc3F)c(Cl)cc2n1 | 1520 | 
Cn1cnc(Cn2c(=O)nc(Nc3cc4cn(C)nc4cc3Cl)n(Cc3cc(F)c(F)c(F)c3F)c2=O)n1 | 395 | 10
CCn1cc2cc(Nc3nc(=O)n(Cc4ncn(C)n4)c(=O)n3Cc3cc(F)c(F)cc3F)c(Cl)cc2n1 | 533 | 
Cc1cncc(-n2c(=O)nc(Nc3cc4cn(C)nc4cc3Cl)n(Cc3cc(C#N)c(F)cc3C)c2=O)c1 | 35 | 2
Cc1cncc(-n2c(=O)nc(Nc3cc4cn(C)nc4cc3Cl)n(Cc3cc(F)c(F)cc3F)c2=O)c1 | 131 | 
Cn1cc2cc(Nc3nc(=O)n(Cc4cc5ccsc5[nH]c4=O)c(=O)n3Cc3cc(F)c(F)c(F)c3)c(Cl)cc2n1 | 321 | 4
Cn1cc2cc(Nc3nc(=O)n(-c4cncc5c4COC5)c(=O)n3Cc3cc(Cl)c(F)cc3F)c(Cl)cc2n1 | 680 | 
Cn1cnc(Cn2c(=O)nc(Nc3cc4cn(CC(F)F)nc4cc3Cl)n(Cc3cc(F)c(F)cc3F)c2=O)n1 | 342 | 9
CCNC(=O)Cn1c(=O)nc(Nc2cc3cn(C)nc3cc2Cl)n(Cc2cc(F)c(F)c(F)c2)c1=O | 11500 | 
Cn1cnc(Cn2c(=O)nc(Nc3cc4cn(C)nc4cc3Cl)n(Cc3cccc4ccccc34)c2=O)n1 | 22500 | 
Cn1cnc(Cn2c(=O)nc(Nc3cc4cn(C)nc4cc3Cl)n(Cc3cc(Cl)c(F)c(Cl)c3)c2=O)n1 | 750 | 5
Cn1cnc(Cn2c(=O)nc(Nc3cc4cn(C)nc4cc3Cl)n(Cc3cc(F)c(F)c(F)c3)c2=O)n1 | 450 | 
Cc1cnc(Cn2c(=O)nc(Nc3cc4cn(C)nc4cc3Cl)n(Cc3cc(F)c(F)cc3F)c2=O)nc1 | 5850 | 
Cn1cnc(Cn2c(=O)nc(Nc3cc4c(F)n(C)nc4cc3Cl)n(Cc3cc(F)c(F)cc3F)c2=O)n1 | 750 | 
